Measurements as given in publication PMC12064818, “A general assay platform to study protein pharmacology using ligand-dependent structural dynamics” (Nature Communications, 2025).

Target: T1, FLuc-C-HiBiT (Photinus pyralis, UniProt P08659)
T1 construct: firefly luciferase with C-terminal HiBiT tag, E. coli expressed
Assay: biochemical
Details: enzyme activity, 10 uM ATP; read-out: IC50 or SDR50 (mM) / FLuc E

T1 sequence (P08659 whole entry, looked up): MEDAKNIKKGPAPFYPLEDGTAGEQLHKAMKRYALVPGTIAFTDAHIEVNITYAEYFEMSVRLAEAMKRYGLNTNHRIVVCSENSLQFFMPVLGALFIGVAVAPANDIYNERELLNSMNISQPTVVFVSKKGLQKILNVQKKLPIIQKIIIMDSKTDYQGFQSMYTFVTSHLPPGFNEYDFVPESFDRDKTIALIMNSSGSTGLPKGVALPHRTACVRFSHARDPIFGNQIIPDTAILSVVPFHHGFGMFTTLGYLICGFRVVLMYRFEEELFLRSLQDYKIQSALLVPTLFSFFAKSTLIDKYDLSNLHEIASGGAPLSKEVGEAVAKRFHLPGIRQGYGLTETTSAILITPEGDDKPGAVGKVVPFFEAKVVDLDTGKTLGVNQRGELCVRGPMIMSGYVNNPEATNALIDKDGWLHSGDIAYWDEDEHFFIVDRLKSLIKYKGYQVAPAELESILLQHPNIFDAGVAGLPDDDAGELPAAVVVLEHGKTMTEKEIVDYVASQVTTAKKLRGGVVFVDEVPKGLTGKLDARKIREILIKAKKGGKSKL

Row | Structure (SMILES) | IC50
1 | O=C(O)C1CN(Cc2ccc(-c3nc4cc(Cc5ccccc5F)ccc4s3)c(F)c2)C1 [NCGC00379113-01] | > 0.03 mM
2 | COc1cccc(-c2nc3cc(NC(=O)c4ccc(F)c(C#N)c4)ccc3s2)c1 [NCGC00350766-01] | > 0.03 mM
3 | Cn1cc(CN2CCc3nc(C(=O)Nc4ccccc4)oc3CC2)cn1 [NCGC00413305-01] | 0.018 mM
4 | CC(C)C(=O)Nc1cc(-c2nc3ccccc3s2)ccc1Cl [NCGC00596190-01] | > 0.03 mM
5 | O=C(c1ccc(F)cc1)N1CCn2c(nnc2C2CC2)C1 [NCGC00480252-01] | > 0.03 mM
6 | Cc1cccc(NC(=O)Nc2ccc(F)cc2)n1 [NCGC00106833-01] | 0.0124 mM
7 | O=C(O)COCC(=O)N[C@H]1CCN2C(=O)c3cc(/C=C/c4ccccc4)ccc3NC(=O)[C@H]12 [NCGC00395144-01] | 0.0124 mM
8 | CC(=O)c1ccc(N[S+](=O)([O-])c2cccc([S+](=O)([O-])c3ccc(Cl)cc3)c2)cc1 [NCGC00098154-01] | > 0.03 mM
9 | CC(=O)N1CCNc2cc(-c3cccc(N4CCOCC4)c3)ncc2C1 [NCGC00411247-01] | 0.018 mM
10 | CN(C)C1CCN(c2ncnc3c2cnn3-c2ccccc2)CC1 [NCGC00608115-01] | > 0.03 mM
11 | CC(C)c1nc2c(c(-c3ccc(O)cc3)n1)CCN(Cc1ccccn1)CC2 [NCGC00480326-01] | > 0.03 mM
12 | CC(C)Oc1ccc(C(=O)Nc2nnc3n2CCS3)cc1 [NCGC00134921-01] | 0.0176 mM
13 | COc1ccc(-c2cc3c(cn2)CN(C)CCN3)cn1 [NCGC00411253-01] | 0.0226 mM
14 | CCCCCSc1nnc(-c2ccc(Br)cc2)o1 [NCGC00098355-01] | > 0.03 mM
15 | c1ccc2cc(-c3nc(C4CCOC4)no3)ncc2c1 (stereo not shown) [NCGC00447332-01] | 0.0176 mM
16 | Cc1ccc(-n2ncc3c(N4CCC(Cc5ccccc5)CC4)ncnc32)cc1C [NCGC00139123-01] | > 0.03 mM
17 | NC(=O)C1CCN(c2ncnc3c2cnn3-c2ccccc2)CC1 [NCGC00141852-02] | > 0.03 mM
18 | COc1cccc(-c2ncc3c(n2)OCCN(Cc2ccc(F)cc2F)C3=O)c1 [NCGC00413648-01] | 0.0161 mM
19 | O=C(Nc1ccc(-c2nc3ccccc3s2)c(O)c1)c1ccccc1 [NCGC00594711-01] | > 0.03 mM
20 | Cc1nc(CN2CCOc3c(O)cc(-c4nc5ccccc5s4)cc3C2)no1 [NCGC00430265-01] | > 0.03 mM
21 | OC1CCN(c2ncnc3c2cnn3-c2ccccc2)CC1 [NCGC00626234-01] | 0.0157 mM
22 | c1ccc(-c2cn3c(n2)CO[C@@H](CNCc2cccs2)C3)cc1 [NCGC00393328-01] | 0.0202 mM
23 | O=C(COc1ccc(Cl)cc1)Nc1ccc(O)c(-c2nc3ccccc3s2)c1 [NCGC00135616-01] | > 0.03 mM

Row | Structure (SMILES) | IC50
24 | Cn1c([C@H]2CCN(C3CCCCC3)C2)nc2ccccc21 [NCGC00394901-01] | 0.0254 mM
25 | c1ccc(COc2ccccc2-c2nc3ccccc3s2)cc1 [NCGC00167623-01] | 0.0124 mM
26 | O=C1c2cnc(-c3ccsc3)nc2OCCN1c1ccccc1 [NCGC00413608-01] | 0.018 mM
27 | COc1ccccc1-c1cc2nc(C)c(CCC(=O)O)c(C)n2n1 [NCGC00108411-01] | 0.0124 mM
28 | CN1c2cc(C(=O)Nc3ccccc3)ccc2C(=O)N2CCCCC21 (stereo not shown) [NCGC00452396-01] | 0.0124 mM
29 | COc1cccc(-n2cnc3c(N/N=C/c4ccncc4)ncnc32)c1 [NCGC00242129-02] | 0.0176 mM
30 | CC1(NC(=O)C2CC2)CN(Cc2nc(-c3cccc(F)c3)cs2)C1 [NCGC00410350-01] | 0.0202 mM
31 | O=C(CSc1ccc(F)cc1)Nc1ccccc1-c1nc2ccccc2s1 [NCGC00274247-01] | > 0.03 mM
32 | COc1cc(OC)c(NC(=O)Cn2c(SCc3ccccc3F)nc3cccnc32)cc1Cl [NCGC00124034-02] | > 0.03 mM
33 | COc1ccc(C(=O)Nc2ccccc2-c2nc3ccccc3s2)c(OC)c1 [NCGC00135640-01] | > 0.03 mM
34 | Cc1ccc(-n2nc(C)c([C@H]3C=C[C@@H](O)C3)c2C)cc1Cl [NCGC00394636-01] | 0.0128 mM
35 | COC1CCOC2(CCN(C(=O)CCCc3ccccc3)CC2)C1 (stereo not shown) [NCGC00452766-01] | 0.0157 mM
36 | Cc1ccc2[nH]c([C@H]3CCN(Cc4cccs4)C3)nc2c1 [NCGC00397946-01] | 0.0202 mM
37 | C[S+](=O)([O-])CCn1ncc2cc(OCc3cccc(-c4cccc(O)c4)c3)ccc21 [NCGC00418035-01] | 0.0161 mM
38 | Cc1csc(NC(=O)c2nc3c(o2)CCN(Cc2ccccc2F)CC3)n1 [NCGC00413264-01] | 0.0128 mM
39 | O=C(Nc1ncc(-c2ccccc2)c2c1OCC2)c1ccccc1 [NCGC00412770-01] | 0.018 mM
40 | Cc1cc2c(c(-c3nc4ccccc4s3)c1)OC(CNC(=O)c1occc1C)C2 (stereo not shown) [NCGC00240406-01] | 0.0124 mM
41 | COc1ccc(NC(=O)N[C@@H]2C=C[C@@H](c3c(C)nn(-c4ccc(C(C)C)cc4)c3C)C2)cc1 [NCGC00421407-01] | > 0.03 mM
42 | O=C(Nc1ccccc1)C1CCN(C(=O)N2CC3CC(C2)[C@H]2CCCC(=O)N2C3)CC1 (stereo partly shown) [NCGC00428953-01] | > 0.03 mM
43 | CCN1CCN(c2csc3ccc(Cl)cc3c2=O)CC1 [NCGC00132328-01] | 0.0124 mM
44 | COc1ccc(CN2CCNc3cc(-c4ccccc4)ncc3C2)cn1 [NCGC00411207-01] | 0.0202 mM
45 | COc1ccc(-c2ccc(CN3CC(C)(NC(C)=O)C3)s2)cn1 [NCGC00410343-01] | 0.0202 mM

The next molecules have a lower IC50 than those just listed; values first:

Row | IC50 | Structure (SMILES)
46 | 0.00881 mM | Cc1cn2nc(C(=O)Nc3ccc(C(=O)NCCc4cccs4)cc3)cc2c(=O)[nH]1 [NCGC00453964-01]
47 | 0.00495 mM | CCN1CCN(C(=O)Cn2c(C)ccc(NC(=O)Nc3ccc(C)cc3)c2=O)CC1 [NCGC00430774-01]
48 | 0.00556 mM | Cc1ccc(-n2ncc3c(N4CCN(C)CC4)ncnc32)cc1 [NCGC00139016-01]
49 | 0.00881 mM | CC(Oc1ccccc1F)C(=O)Nc1ccc(-c2nc3ccccc3s2)cc1 (stereo not shown) [NCGC00119149-01]
50 | 0.000556 mM | O=[S+]([O-])(c1cccc(C(F)(F)F)c1)n1c(/C=C/c2ccccc2)nc2ccccc21 [NCGC00139418-01]
51 | 0.007 mM | O=C(NCCc1ccccc1F)c1nc2sccn2c1Br [NCGC00479849-01]
52 | 0.00404 mM | O=C1c2cnc(-c3ccc(Cl)cc3)nc2OCCN1CC1CC1 [NCGC00413489-01]
53 | 0.0111 mM | CN(C)c1ccc(-c2nc3ccccn3c2Nc2ccc3c(c2)OCCO3)cc1 [NCGC00106568-01]
54 | 0.00495 mM | Cc1ccccc1CCNC(=O)c1ccc2c(c1)nc1n2CCOC1 [NCGC00133426-01]
55 | 0.007 mM | C[C@H](C(=O)N(C)CCC#N)C1CC[C@@]2(C)Cc3sc(NC(=O)c4cccn4C)nc3[C@@H](C)[C@@H]2[C@H]1O (stereo partly shown) [NCGC00421252-01]
56 | 0.0111 mM | CSCC(=O)N[C@H]1CCN2C(=O)c3cc(-c4ccc(SC)cc4)ccc3NC(=O)[C@H]12 [NCGC00391740-01]
57 | 0.000785 mM | Clc1ccc(-c2cn3cc(Cc4ccccc4)sc3n2)cc1 [NCGC00102104-01]
58 | 0.00279 mM | Cc1ccc(CNC(=O)Nc2cccc(-c3ccc(N4CCOCC4)nn3)c2)cc1 [NCGC00427596-01]
59 | 0.00881 mM | Cc1ccc(OCc2nc(C3CN(C(=O)c4n[nH]c5ccccc45)C3)no2)cc1 [NCGC00456269-01]
60 | 0.00279 mM | CCOc1ccc(NC(=O)CCc2c(C)nc3cc(-c4ccc(Cl)cc4)nn3c2C)cc1 [NCGC00110024-01]
61 | 0.00248 mM | O=C(Nc1cnc(-c2ccccc2)nc1)C1CCCC1 [NCGC00432867-01]
62 | 0.00279 mM | COc1ccc(C(=O)NCCn2cccc2-c2nc(-c3ccccc3)no2)cc1 [NCGC00445570-01]
63 | 0.00881 mM | O=C(O)c1ccc(-c2noc(-c3cccc(C(F)(F)F)c3)n2)cc1 [NCGC00168106-02]
64 | 0.00197 mM | CC(C)COc1ccc(C(=O)Nc2onc3c2CCCC3)cc1 [NCGC00115916-01]
65 | 0.00785 mM | COc1cccc(CNc2nc3ccccc3c3nc(-c4cccc(C)c4)nn23)c1 [NCGC00112594-01]

Row | IC50 | Structure (SMILES)
66 | 0.00989 mM | CCCNc1cc(N2CCC(CCC(=O)Nc3ccc4c(c3)OCCO4)CC2)ncn1 [NCGC00470245-01]
67 | 0.000624 mM | CC(=O)Nc1ccc(NC(=O)c2cc(-c3ccc4c(c3)OCCO4)on2)cc1 [NCGC00118853-01]
68 | 0.00279 mM | COc1cccc(-c2noc(-c3ccc(N4CCCC(CO)C4)nc3)n2)c1OC (stereo not shown) [NCGC00425266-01]
69 | 0.0111 mM | Cc1ccc(C(=O)NCCn2cccc2-c2nc(-c3ccc4c(c3)OCO4)no2)cn1 [NCGC00445612-01]
70 | 0.0111 mM | O=C1NCCCCCCN(Cc2ccncc2)[C@@H]2CN(C(=O)Nc3ccc4c(c3)OCCO4)CC[C@H]12 [NCGC00467232-01]
71 | 0.00624 mM | O=C(NC1CCN(c2cc(-c3ccc(F)cc3)n[nH]2)C1)c1cc2ccccc2[nH]1 (stereo not shown) [NCGC00437958-01]
72 | 0.007 mM | Cc1cccn2c(=O)c(C(=O)NCCc3ccccc3)cnc12 [NCGC00137532-01]
73 | 0.00989 mM | Cc1noc(-c2cccn3c(CNC(=O)c4ccc(C(C)(C)C)cc4)nnc23)n1 [NCGC00457512-01]
74 | 0.0111 mM | Cc1ccc2oc(-c3ccc(C)c(NC(=O)/C=C/c4ccc(Cl)cc4)c3)nc2c1 [NCGC00103154-01]
75 | 0.00313 mM | Cc1ccc(-c2cc3c(=O)n(CCNC(=O)c4cccc(C#N)c4)ccn3n2)c(C)c1 [NCGC00456970-01]
76 | 0.0111 mM | O=C(NCc1ccoc1)c1ccc2nc(-c3ccc(F)cc3)cn2c1 [NCGC00425034-01]
77 | 0.000556 mM | O=C(Nc1nc2c(s1)CCCC2)c1ccccc1F [NCGC00118438-01]
78 | 0.0111 mM | COc1ccc(-c2nc3ccccc3s2)cc1NC(=O)c1ccccc1OC [NCGC00102097-01]
79 | 0.00495 mM | COc1ccc(-c2cc(N3CCCC(NC(=O)c4ccc5[nH]ccc5c4)C3)[nH]n2)cc1 (stereo not shown) [NCGC00437714-01]
80 | 0.00989 mM | c1ccc(CNc2cc(-c3cc(N4CCCCC4)ncn3)c3cc[nH]c3n2)nc1 [NCGC00436665-01]
81 | 0.00785 mM | COc1ccc(NC(=O)Nc2ccc(C)n(CC(=O)N3CCCC(C)C3)c2=O)cc1 (stereo not shown) [NCGC00430838-01]
82 | 0.0111 mM | CNc1nc(C(=O)NCc2ccc3[nH]c(-c4ccc(F)cc4)c(C)c3c2)cs1 [NCGC00443141-01]
83 | 0.0007 mM | Cc1cccc(-n2ncc3c(N4CCCC(C)C4)ncnc32)c1 (stereo not shown) [NCGC00138848-01]
84 | 0.00989 mM | COc1ccc(C(=O)Nc2cc(-c3nc4ccccc4s3)ccc2OC)cc1 [NCGC00103028-01]
85 | 0.007 mM | Cc1ccc(OCC(=O)Nc2cccc(C(=O)OCc3cc(=O)n4nc(C)sc4n3)c2)cc1 [NCGC00130504-01]
